Data reported in ChEMBL document CHEMBL5528065, “Structure-Activity Relationship of a Pyrrole Based Series of PfPKG Inhibitors as Anti-Malarials” (J Med Chem, 2024).

Experiments:
[1] = Inhibition of recombinant Plasmodium falciparum PKG using FAM-PKA peptide as fluorescent substrate preincubated for 15 mins followed by substrate addition measured after 1 hr by fluorescence polarization based IMAP assay
[2] = system: Plasmodium falciparum; assay: Antimalarial activity against Plasmodium falciparum expressing PKG T618Q mutant infected in human erythrocytes assessed as reduction in parasitemia incubated for 72 hrs by SYBR green I and Mitotracker deep red dye based flow cytometric analysis; format: functional, organism-based; details: Plasmodium falciparum, 72 h
[3] = system: Plasmodium falciparum; assay: Antimalarial activity against drug-sensitive Plasmodium falciparum 3D7 infected in human erythrocytes assessed as reduction in parasitemia incubated for 72 hrs by SYBR green I and Mitotracker deep red dye based flow cytometric analysis; format: functional, organism-based
[4] = organism: Homo sapiens; assay: Inhibition of human PKG using FAM-IP3R peptide as fluorescent substrate at 10 uM preincubated for 15 mins followed by substrate addition measured after 1 hr by fluorescence polarization based IMAP assay relative to control; details: time 75.0 min
[5] = system: Plasmodium berghei; assay: Antimalarial activity against Plasmodium berghei sporozoites expressing Luciferase infected in human HepG2 cells assessed as reduction in parasite growth incubated for 48 hrs by ONE-Glo luciferase assay; format: functional, organism-based
[6] = Plasmodium falciparum, 3D7, 72 h
[7] = Plasmodium berghei, HepG2, 48 h

SMILES	IC50 [1] [nM]	pIC50 [1]	EC50 [2] [nM]	EC50 [3, 6] [nM]	inhibition [4] [%]	EC50 [5, 7] [nM]	EC50 [5] [nM]	EC50 [3] [nM]
CN1CCC(c2cc(-c3ccnc(C(N)=O)c3)c(-c3ccc(F)cc3)[nH]2)CC1.Cl.Cl	1810	5.74	> 10000	3920	14			
C[C@H]1C[C@H](c2cc(-c3ccncc3)c(-c3ccc(F)cc3)[nH]2)CCN1C.Cl.Cl (racemic)	51	7.1	950	380	7	560		
CN1CCC(c2[nH]c(-c3ccc(F)cc3)c(-c3ccncc3)c2C#N)CC1.Cl.Cl	11	7.96	2450	900	19	540		
CN1CCC(c2cc(-c3ccncc3Br)c(-c3ccc(F)cc3)[nH]2)CC1.Cl.Cl	35	7.46	1670	330	13	340		
CC(=O)O.CN1CCC(c2cc(-c3ccnc(C#N)c3)c(-c3ccc(F)cc3)[nH]2)CC1	95	7.02	3730	420	9	2800		
CN1CCC(c2cc(-c3ccncc3C#N)c(-c3ccc(F)cc3)[nH]2)CC1.Cl.Cl	35	7.46	4400	360	2	340		
CN1CCC(c2cc(-c3ccncc3)c(-c3ccc(F)cc3)n2C)CC1.Cl.Cl	112	6.95	690	710	4	2300		
CCc1c(C2CCN(C)CC2)[nH]c(-c2ccc(F)cc2)c1-c1ccncc1.Cl.Cl	1610	5.79			12			
CN1CCC(C)(c2cc(-c3ccncc3)c(-c3ccc(F)cc3)[nH]2)CC1.Cl.Cl	50	7.09	1070	550	35	500		
CN1CCC(c2[nH]c(-c3ccc(F)cc3)c(-c3ccncc3)c2Br)CC1.Cl.Cl	107	6.97	1140	1550	12			
CN1CCC(c2cc(-c3ccncc3Cl)c(-c3ccc(F)cc3)[nH]2)CC1.Cl.Cl	152	7.47	3950	460	12	1440		
CN1CCC(c2cc(-c3ccncc3CO)c(-c3ccc(F)cc3)[nH]2)CC1.Cl.Cl	1520	5.82	6230	481	1	2400		
CN1CCC(c2cc(-c3ccn4nnnc4c3)c(-c3ccc(F)cc3)[nH]2)CC1.Cl.Cl	11600	4.94	2270	2750	12	> 20000		
C[C@@H]1CN(C)CC[C@H]1c1cc(-c2ccncc2)c(-c2ccc(F)cc2)[nH]1.Cl.Cl (racemic)	27	7.64	800	30	9		280	
CC(O)c1cc(-c2cc(C3CCN(C)CC3)[nH]c2-c2ccc(F)cc2)ccn1.Cl.Cl (stereo not given)	10500	4.98	8320	3350	0.5	> 10000		
COc1ccc(-c2[nH]c(C3CCN(C)CC3)cc2-c2ccncc2)cc1.Cl.Cl	30	7.2	1090	230	6	240		
CN1C[C@@H]2C(c3cc(-c4ccncc4)c(-c4ccc(F)cc4)[nH]3)[C@@H]2C1.Cl.Cl (stereo not given in full)	207	6.59	900	640	6	670		
CN1CCC(c2cc(-c3ccncc3)c(-c3ccsc3)[nH]2)CC1.Cl.Cl	176	6.89	1740	1020	7	2400		

SMILES	IC50 [1] [nM]	pIC50 [1]	EC50 [2] [nM]	EC50 [3, 6] [nM]	inhibition [4] [%]	EC50 [5, 7] [nM]	EC50 [5] [nM]	EC50 [3] [nM]
CN1CCC(c2cc(-c3ccncc3F)c(-c3ccc(F)cc3)[nH]2)CC1.Cl.Cl	49	7.72	5220	300	18	780		
C[C@@H]1C[C@H](c2cc(-c3ccncc3)c(-c3ccc(F)cc3)[nH]2)CCN1C.Cl.Cl (racemic)	41	6.97	900	360	10	670		
CN1CCC(c2cc(-c3ccncc3)c(-c3ccc(C(F)(F)F)cc3)[nH]2)CC1.Cl.Cl	329	6.94	800	530	-2	2600		
CN1CCC(c2cc(-c3ccncc3)c(-c3ccc(F)cc3)[nH]2)CC1.Cl	31	7.61	1020	230	6	270		
C[C@H]1CN(C)CC[C@H]1c1cc(-c2ccncc2)c(-c2ccc(F)cc2)[nH]1.Cl.Cl (racemic)	10	7.89	660		35	190		30
CN1CCC(c2[nH]c(-c3ccc(F)cc3)c(-c3ccncc3)c2C(N)=O)CC1.Cl.Cl	4840	5.31		> 20000	14			
CN1CCC(c2cc(-c3ccncc3C(N)=O)c(-c3ccc(F)cc3)[nH]2)CC1.Cl.Cl	4910	5.31		> 20000	15			
CC(=O)O.CC(O)c1c(C2CCN(C)CC2)[nH]c(-c2ccc(F)cc2)c1-c1ccncc1 (stereo not given)	1430	5.84	3750	4260	15			
Cc1cc(-c2cc(C3CCN(C)CC3)[nH]c2-c2ccc(F)cc2)ccn1.Cl.Cl	2550	5.59	960	2330	9	3700		
CN1CCC(c2cc(-c3ccnc(N)c3)c(-c3ccc(F)cc3)[nH]2)CC1.Cl.Cl	352	6.45	600	50	-4	590		
CN(C)Cc1c(C2CCN(C)CC2)[nH]c(-c2ccc(F)cc2)c1-c1ccncc1.Cl.Cl.Cl	3760	5.43			8			
CCOC(=O)c1c(C2CCN(C)CC2)[nH]c(-c2ccc(F)cc2)c1-c1ccncc1.Cl.Cl	1030	5.99	1630	2470	0	2600		
Cc1cnccc1-c1cc(C2CCN(C)CC2)[nH]c1-c1ccc(F)cc1.Cl.Cl	208	6.68	1130	1360	12	590		
CN1CCC(c2cc(-c3ccnc(Br)c3)c(-c3ccc(F)cc3)[nH]2)CC1.Cl.Cl	169	6.77	1930	1720	36			
CN1C2CCC1CC(c1cc(-c3ccncc3)c(-c3ccc(F)cc3)[nH]1)C2.Cl.Cl (stereo not given)	132	7.09	670	350	-9	490		
CC(=O)O.CN1CCC(c2[nH]c(-c3ccc(F)cc3)c(-c3ccncc3)c2CO)CC1	226	6.65	4190	4610	11			
C=Cc1c(C2CCN(C)CC2)[nH]c(-c2ccc(F)cc2)c1-c1ccncc1.CC(=O)O	246	6.61	1170	1080	-1	410		
